Patent US20060063839A1, “Inhibitors of decrease in body temperature” (AJINOMOTO CO., INC., priority 2003, published 2006)

How the values were obtained:
Assay type in all cases: in vivo, rat
[1] = tested on: rats under propofol anesthesia; assay: Measurement 1 of inhibiting effect of decrease in body temperature (rectal temperature, propofol anesthesia); details: for variation of body temperature in 3 hours after administering the anesthesia solution to that before administration: average; for inhibiting effect of decrease in body temperature (core temperature), in words: summary of Table 2
Experimental: A catheter was inserted into an external jugular vein of each of rats used in the evaluation in advance and a tip of the catheter was […] from their backs and locked with heparin. […] Then, 42 mL/kg thereof were continuously administered for 1 hour simultaneously with the start of administration of the anesthesia agent. Numbers of each group were set to 4 to 6. As for the administration of the anesthesia agent, 15 mg/kg thereof was intravenously administered through the catheter with bolus method at the beginning. […] As for the measurement of the body temperature, a former value was measured with a rectal thermometer before administering amino acid solutions, and values were measured at 30-minute intervals from the start of administration of the anesthesia agent until 3 hours after the end thereof. The measurement results were calculated as variations (value before administration-value after administration) of values in 3 hours after administering the anesthesia solution to those before administration and represented with average ± standard deviation. As for a statistical test, comparison between two groups with the normal saline solution was conducted using student t-test.

[2] = tested on: rats with celiotomy invasion under propofol anesthesia; assay: Body temperature at the end of anesthesia in the celiotomy invasion experiment; details: valine-administered group, n=6
Experimental: (§1) The examination was practiced with three groups of a normal group, a valine-administered group and an objective group. A catheter was inserted into an external jugular vein of each of rats (7 to 8 weeks age) used in the evaluation in advance and a tip of the catheter was exserted from their backs and locked with heparin. The rats were recovered for a few days in the status quo. 105 mg/kg of valine (5.25 mL/kg of 2 W/V % of valine solution) was administered through the inserted catheter to the valine-administered group (n=6) four times at 15-minute intervals from 60 minutes before the start of administration of a propofol anesthesia agent. Then, valine was continuously administered for 1 hour in 420 mg/kg/hr (21 mL/kg of 2 W/V % valine solution) simultaneously with the start of administration of the propofol anesthesia agent. A normal saline solution was administered instead of valine to the objective group (n=6). 15 mg/kg of the propofol anesthesia agent was introduced to be administered through the catheter at the beginning, and continuously administered for 3 hours in 33.75 mg/kg/hr. The celiotomy invasion was conducted by opening the abodominals of the rats simultaneously with the administration of the anesthesia, exteriorizing their appendixes from the abdominal cavities, putting them back again at once and suturing the abdominals. The catheter was not inserted to the normal group. […]

[3] = tested on: peripheral mononuclear blood cells (PBMC) TNF-α production; assay: Effect on production of peripheral mononuclear blood cell TNF-α (PBMC taken after anesthesia and celiotomy, LPS stimulation, ELISA); details: PBMC incubated with 1 μg/mL LPS for 24 hours; valine 4 x 105 mg/kg then 420 mg/kg/hr for 1 hour; n=6
Experimental: as §1

[4] = tested on: rats under propofol anesthesia; assay: Measurement 2 of inhibiting effect of decrease in body temperature: timing of valine administration (Groups A to D)
Experimental: Examination was conducted on whether differences of the inhibiting effect of decrease in body temperature of valine were shown depending on difference of timings of administration (following A to D). A catheter was inserted into an outward jugular vein of each of rats (7 to 8 weeks age) used in the evaluation in advance and a tip of the catheter was exserted from their backs and locked with heparin. The rats were recovered for a few days in the status quo. Valine was administered through the catheter with the following four methods:
A: for 2 hours before the start of administration of propofol
B: for 1 hour before the start of administration of propofol+1 hour after the start of administration of propofol
C: for 2 hours simultaneously with the start of administration of propofol
D: for 2 hours starting from 1 hour after the start of administration of propofol. 105 mg/kg of valine containing 10.5 mL/kg of 1% valine solution was administered to Group A eight times at 15-minute intervals. 105 mg/kg of valine containing 10.5 mL/kg of 1% valine solution was administered to Group B four times at 15-minute intervals and then continuously administered for 1 hour in 420 mg/kg/hr containing 42 mL/kg of 1% valine solution. Valine was continuously administered to Groups C and D for 2 hours in 420 mg/kg/hr containing 42 mL/kg of 1% valine solution. Each group (n=8 to 9) was administered the same total dose of valine. 15 mg/kg of a propofol anesthesia agent was administered through the catheter at the beginning and, after induction of anesthesia, it was continuously administered for 3 hours in 33.75 mg/kg/hr.

[5] = tested on: rats with surgical invasion under propofol anesthesia; assay: Effect on recovery from operative invasion (abdominal surgery under propofol anesthesia; body temperature and survival)
Experimental: A catheter was inserted into an external jugular vein of each of rats (7 weeks age) used in the evaluation in advance and a tip of the catheter was exserted from their backs and locked with heparin. The rats were recovered for a few days in the status quo. 105 mg/kg of valine (5.25 mL/kg of 2 W/V % of valine solution) was administered through the catheter to a valine-administered group four times at 15-minute intervals from 60 minutes before the start of administration of a propofol anesthesia agent. Then, valine was continuously administered for 5 hours in 420 mg/kg/hr (21 mL/kg of 2 W/V % valine solution) simultaneously with the start of administration of the propofol anesthesia agent. A normal saline solution was administered instead of a valine solution to an objective group. As for the administration of the propofol anesthesia agent, 15 mg/kg thereof was intravenously administered through the catheter with bolus method at the beginning. Soon after that, the agent was started to be continuously administered in 45 mg/kg/hr. 1 hour later, the administration speed was changed to 33.75 mg/kg/hr and continuous administration was conducted for 5 hours. Numbers of each group were set to 8. As for surgical invasion, abdominals of the rats were opened after the bolus anesthesia, their appendixes were exteriorized from their abdominal cavities and exposed in the air for 30 minutes. Then, their appendixes were put back to their abdominal cavities and sutured. As for the measurement of the body temperatures, a former value was measured with a rectal thermometer before administering the amino acids, and the value was measured again in 3 hours after the administration of propofol. The results were shown as the decreased temperature to Pre value. Survival rates were calculated from number of survivors in 24 hours from the start of the experiment.

[6] = 0.1% solution i.v. (4 x 10.5 mL/kg before, 42 mL/kg during 1 h of propofol)
[7] = 1% solution i.v. (4 x 10.5 mL/kg before, 42 mL/kg during 1 h of propofol)
[8] = Group A: valine for 2 hours before the start of propofol
[9] = Group B: valine for 1 hour before + 1 hour after the start of propofol
[10] = Group C: valine for 2 hours simultaneously with the start of propofol
[11] = Group D: valine for 2 hours starting 1 hour after the start of propofol

| SMILES | variation of body temperature in 3 hours after administering the anesthesia solution to that before administration [1, 6] [°C] | variation of body temperature in 3 hours after administering the anesthesia solution to that before administration [1, 7] [°C] | inhibiting effect of decrease in body temperature (core temperature), in words [1] | body temperature at the end of the administration of the anesthesia [2] [°C] | production quantity of TNF-α [3] [pg/1×10^6 cells] | decrease in body temperature from the time before administration until the end of the anesthesia [4, 8] [°C] | increase in body temperature from the end of administration of the anesthesia until 1 hour after [4, 8] [°C] | decrease in body temperature from the time before administration until the end of the anesthesia [4, 9] [°C] | increase in body temperature from the end of administration of the anesthesia until 1 hour after [4, 9] [°C] | decrease in body temperature from the time before administration until the end of the anesthesia [4, 10] [°C] | increase in body temperature from the end of administration of the anesthesia until 1 hour after [4, 10] [°C] | decrease in body temperature from the time before administration until the end of the anesthesia [4, 11] [°C] | increase in body temperature from the end of administration of the anesthesia until 1 hour after [4, 11] [°C] | inhibiting effect of decrease in body temperature, in words [4, 11] | inhibition of the decrease in body temperature versus the objective (saline) group ([5]; 3 hours after administration of propofol) [°C] | decrease in body temperature to Pre value ([5]; 3 hours after administration of propofol, valine 4 x 105 mg/kg then 420 mg/kg/hr for 5 hours, n=8) [°C] | survival rate after one day ([5]; 24 hours from the start of the experiment, n=8) [%] |
| --- | --- | --- | --- | --- | --- | --- | --- | --- | --- | --- | --- | --- | --- | --- | --- | --- | --- |
| N[C@@H](CS)C(=O)O [Cystein, cystein] | −6.3 | −4.8 | inhibiting effect of decrease in body temperature (core temperature) was shown |  |  |  |  |  |  |  |  |  |  |  |  |  |  |
| N[C@@H](CC(=O)O)C(=O)O [Asparatic Acid, asparatic acid] | −6.4 | −4.5 | inhibiting effect of decrease in body temperature (core temperature) was shown |  |  |  |  |  |  |  |  |  |  |  |  |  |  |
| NCC(=O)O [Glycine, glycine] | −6.4 | −6.1 | inhibiting effect of decrease in body temperature (core temperature) was shown |  |  |  |  |  |  |  |  |  |  |  |  |  |  |
| CC(C)[C@H](N)C(=O)O [Valine, valine] | −4.8 | −4.0 | inhibiting effect of decrease in body temperature (core temperature) was shown | 31.2±0.8 | 1389.8±415.8 | 6.1±1.9 | 1.1±0.5 | 4.3±1.2 | 2.0±1.2 | 6.1±1.4 | 2.0±0.9 | 6.9±1.0 | 1.0±0.6 | inhibiting effect of decrease in body temperature was not shown | 1.19 | 7.83±0.87 | 87.5 |
